Source: publication PMC9369610, “Pro-Apoptotic and Pro-Autophagic Properties of Cardenolides from Aerial Parts of Pergularia tomentosa” (Molecules, 2022)

Legend:
Caco-2 cells = experiment: MTT cell viability assay, IC50 in Caco-2 cells; assay type: cell-based; details: Homo sapiens, 24 h, SE less than 10% of value
Experimental: (§1) The human liver hepatocellular carcinoma cell line, HepG2, and the human adenocarcinoma of colon cell line, Caco-2, were cultured in Eagle’s Minimum Essential medium supplemented with 1% (v/v) non-essential amino acids, 0.2 mM L-glutamine, 50 units/mL penicillin, 50 μg/mL streptomycin and 10% (v/v) or 20% (v/v) fetal bovine serum (Sigma Aldrich, Milan, Italy) for HepG2 or Caco-2, respectively. The human embryonal lung fibroblast cell line, MRC5, was cultured in Dulbecco’s Modified Eagle medium (Sigma Aldrich, Milan, Italy) supplemented with 10% (v/v) fetal bovine serum, 0.2 mM L-glutamine, 50 units/mL penicillin and 50 μg/mL streptomycin. HUVEC cells were cultured in endothelial growth medium-2, supplemented with fetal bovine serum (2%), VEGF (0.1%), rH FGF-B (0.4%), rH EGF (0.1%), GA-1000 (0.1%), hydrocortisone (0.04%), R3-IGF-1 (0.1%), heparin (0.1%) and ascorbic acid (0.1%). Cells were maintained at 37 °C in a 5% CO2, 95% air-humidified atmosphere and passaged twice a week. Cell lines were obtained from Interlab Cell Line Collection, Istituto Nazionale per la Ricerca sul Cancro, Genoa, Italy. HUVEC were obtained from Lonza (Milan, Italy).
(§2) An MTT assay was used to analyse cell viability. Cells were seeded in 96 wells at the density of 2 × 10^4/cm^2 and, after 24 h, they were treated with P. tomentosa compounds or with the vehicle (DMSO). After a further 24 h of treatment, 0.5 mg/mL of MTT was added to the cell medium and incubated for 1.5 h at 37 °C. The resulting formazan crystals were dissolved in 100 μL of DMSO and absorbances were measured at 595 nm and 655 nm. The background signals at 655 nm were subtracted from 595 nm signals, and data were expressed as a percent of cell viability. The concentration of each compound that is required for 50% inhibition in vitro (IC50) was calculated as described in Husseini et al.. IC50 values were obtained for Caco-2, HepG2 and MRC5 cells by performing MTT assays with concentrations ranging from 0.01 μg/mL to 5 μg/mL.

HepG2 cells [1] = experiment: MTT cell viability assay, IC50 in HepG2 cells; assay type: cell-based; details: Homo sapiens, 24 h, SE less than 10% of value
Experimental: as §1, §2

MRC5 cells = experiment: MTT cell viability assay, IC50 in MRC5 cells; assay type: cell-based; details: Homo sapiens, 24 h, SE less than 10% of value
Experimental: as §1, §2

[2] = test system: HepG2, Caco-2, MRC5 and HUVEC cells; experiment: MTT assay, comparison of cytotoxic effects at 1 μM on four cell types; assay type: cell-based, human; details: 24 h, Caco-2, HepG2, MRC5, HUVEC
Description: We focused attention on 12β,6′-dihydroxycalotropin (1), 16α-hydroxycalotropin (2), 12β-hydroxycalactin (3), calotropin (4), and calactin (5), among those described by Hosseini et al., and tested their cytotoxic activity by a 3-(4,5-dime-thylthiazol-2-yl)-2,5-diphenylte-tetrazolium bromide (MTT) assay on two cancer cell lines (HepG2 and Caco-2), not previously employed, on an immortalised nontumoral cell line (MRC5) and normal primary cells (HUVEC).
Figure 2 Comparison of cytotoxic effects of P. tomentosa compounds on cancer cell lines (Caco-2 and HepG2), on an immortalised cell line (MRC5) and normal cells (HUVEC). Cells were treated for 24 h with 1 μM of each compound. Residual viability was measured by the MTT assay. Values are the means ± standard error (SE) of three independent experiments performed in triplicate. Statistical analysis was performed using the Student’s t-test. * p < 0.05 and ** p < 0.01 vs. cells treated with the vehicle (DMSO).
as §1, §2

HepG2 cells [3] = experiment: BrdU incorporation (proliferation) assay; assay type: cell-based, human; details: HepG2, 1 μM, 24 h
Experimental: Cell proliferation was analysed by a BrdU (Roche Diagnostics SpA, Monza, Italy) incorporation assay, as previously described. Briefly, HepG2 cells, seeded at adensity of 3 × 10^3/cm^2 on round glass cover slips, were treated for 24 h with P. tomentosa compounds at 1 μM. Then, BrdU was added to cell medium (final concentration, 100 μM) for 1 h. Cells were fixed (in 3% paraformaldehyde, 10 min), permeabilised (in 0.2% Triton X-100, 5 min) and treated with HCl 1.5 N (5 min). Finally, cover slips were incubated with a monoclonal antibody against BrdU (Sigma-Aldrich, Milan, Italy), 1:100, and with a TRITC-conjugated secondary antibody, 1:100. After staining with Hoechst, cover slips were mounted with Mowiol (Sigma, Milan, Italy). […] Images were acquired with Axiocam MRc5 and processed with ImageJ Launcher. The number of cells into S-phase was expressed as the ratio between the number of cells incorporating BrdU and the total number of cells.

HepG2 cells [4] = experiment: Scratch-wound-healing assay; assay type: cell-based, human; details: HepG2, 1 μM, 24, 48 and 72 h
Experimental: Cells were seeded at a density of 5 × 10^4 cells/well in 24-well plates and allowed to grow for 72 h, reaching confluence. Mitomycin C (10 μg/mL) was added to inhibit proliferation, and then a sterile 2–10 μL pipette tip was used to perform a vertical scratch in the monolayer of each well. Detached cells were removed by washing with phosphate-buffered saline. Then, 300 μL of fresh medium containing P. tomentosa compounds (1 μM) or vehicle was added to each well and incubated for 72 h. Images of migrating cells were taken at 0, 24, 48 and 72 h, by using an Olympus CKX41 fluorescent microscope (Olympus Italia srl, Segrate, Italy) and elaborated by the ImageJ software. For each scratch, wound width was calculated as the average distance between the edges in four different sites. Then, reductions in wound wights at 24, 48 and 72 h were expressed as % of the width at time zero.

HepG2 cells [5] = experiment: Transwell migration assay; assay type: cell-based, human; details: HepG2, 1 μM, 18 h
Experimental: Transwell filters (coated with collagen) in serum-free media containing 0.1% of BSA, with a PET membrane with 8 μm pores (BD Biosciences, Milan, Italy), were rehydrated for 2 h at 37 °C. HepG2 were seeded in the upper chambers at a density of 75 × 10^3 cells in MEM with 0.1% BSA and treated with or without 1 µM of Pergularia compounds. MEM−0.1%BSA, supplemented with 10% FBS, was added to the lower chamber as chemoattractant. Control wells without 10% FBS were included to assess random migration. After incubation at 37 °C in 5% CO2 for 18 h, the migrated cells were fixed with 4% paraformaldehyde for 5 min, permeabilised with methanol for 20 min and stained with crystal violet 0.5% for 15 min at room temperature. The cells on the lower side of the filter were allowed to dry before counting. Eight separate bright-field images were randomly acquired of each filter using an Olympus CKX41 Image Analyzer. The cells in each image were counted and analysed compared to control-transfected cells.

caspase-3 in HepG2 cells = experiment: Caspase-3 colorimetric activity assay; assay type: cell-based, human; details: HepG2, 1 μM, 24 h
Experimental: To evaluate apoptosis, a caspase-3 colorimetric assay was performed. Briefly, HepG2 cell lines were seeded in plates of 60 mm diameter at a density of 3.5 × 10^4/cm^2 and, after 24 h, treated with P. tomentosa compounds (1 μM each) for 24 h. Then, cells were harvested in phosphate-buffered saline, collected by centrifugation and lysed in a buffer containing 50 mM HEPES, 0.1% CHAPS, 10 mM dithiothreitol, 100 mM NaCl, 1 mM EDTA and 10% sucrose. Proteins (30 μg) were incubated for 2 h at 37 °C in a reaction mixture containing the caspase-3 substrate (acetyl-Asp-Glu-Val-Asp, labelled with p-nitroanilide) (Sigma-aldrich, Milan, Italy) at a concentration of 0.2 mM. Finally, the release of free p-nitroanilide was monitored spectrophotometrically at 405 nm. Enzyme activity was expressed as percentage of absorption of treated cells versus vehicle-treated cells.

HepG2 cells [6] = experiment: TUNEL assay; assay type: cell-based, human; details: HepG2, 1 μM, 24 h
Experimental: Microscopic evaluation of apoptosis was performed by a TUNEL assay, using a commercial kit (Fragment End Labelling (FragEL™), […]) DNA Fragmentation Detection Kit, Sigma-Aldrich, Milan, Italy) according to the manufacturer-provided protocol, with some modifications. Briefly, cells were seeded on glass cover slips placed in 24-well plates at a density of 3.5 × 10^3/cm^2 and, after 48 h, they were treated with 1 μΜ of each compound for a further 24 h. Cells were fixed in 3% paraformaldehyde for 10 min, permeabilised in 0.2% Triton X-100 for 5 min and treated with HCl 1.5 N for 8 min. Finally, cover slips were equilibrated in equilibration buffer (10 min) and incubated with label mix containing the TdT enzyme for 1 h at 37 °C, then mounted with mounting media. Microscope observations were performed by the AxioSkop 40 fluorescent microscope. Images were acquired with Axiocam MRc5 (Carl Zeiss MicroImaging, Inc., Jena, Germany).

C[C@@H]1C[C@@H](O)[C@]2(O)O[C@@H]3C[C@@]4(C=O)C(CCC5C4C[C@@H](O)[C@]4(C)C(C6=CC(=O)OC6)CC[C@]54O)C[C@H]3O[C@@H]2O1 (stereo partly drawn) [Compound 3, 12β-hydroxycalactin]
IC50 (Caco-2 cells): 4.51 µM | IC50 (HepG2 cells [1]): 6.29 µM | IC50 (MRC5 cells): 5.98 µM | relative cytotoxicity (residual viability, MTT) [2]: less cytotoxic | effect on BrdU incorporation / cell cycle progression (HepG2 cells [3]): slightly (but not significantly) reduced BrdU incorporation | effect on wound closure (HepG2 cells [4]): had an effect at 48 h only | effect on transwell migration (HepG2 cells [5]): reduce migration | caspase-3 activity (caspase-3 in HepG2 cells): did not seem to affect enzyme activity | apoptotic nuclei (TUNEL) (HepG2 cells [6]): undetectable
